Laboratory results as given in patent US20240238423A9, “TETRAHYDROISOQUINOLINE HETEROBIFUNCTIONAL BCL-XL DEGRADERS” (Treeline Biosciences, Inc., priority 2022, published 2024).
Like-named read-outs stand apart in the source and are kept apart here.

Target: T1, Human BCL-XL protein (N-terminal HiBiT tagged BCL-XL in HT1080 cells) (Homo sapiens, UniProt Q07817)
T1 construct: expressed in transfected cells; host or cells: HT-1080 (ATCC CCL-121), stably transduced with lentivirus pLV-UBC-N-HiBiT-BCL-XL-PGK-puro and selected with puromycin
Assay: HiBiT based degradation assay
Assay type: cell-based
Details: HT1080 cells expressing HiBiT-BCL-XL; for Ymin (6 h) / Ymin (24 h): BCL-XL degradation normalized with DMSO control; for DC50: BCL-XL degradation
Method in brief: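 HT1080 cells stably transduced by lentivirus with N-terminally HiBiT-tagged human BCL-XL and kept under 1 μg/mL puromycin selection were seeded at three thousand cells per well in 40 μL RPMI 1640 into 384-well plates pre-spotted with compounds across a concentration range. Luminescence was read on a PHERAstar FSX, normalized to DMSO, and fitted with a four-parameter logistic model.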

T1 sequence (Q07817 whole entry): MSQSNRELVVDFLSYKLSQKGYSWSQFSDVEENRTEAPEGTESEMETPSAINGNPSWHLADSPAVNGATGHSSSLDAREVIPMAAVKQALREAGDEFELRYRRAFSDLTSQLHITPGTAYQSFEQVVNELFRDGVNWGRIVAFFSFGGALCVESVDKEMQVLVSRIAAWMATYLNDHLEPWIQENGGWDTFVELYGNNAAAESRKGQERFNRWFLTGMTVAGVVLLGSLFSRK

Cc1c(OCCCC2CCN(CCCOc3ccc4c(C5CCC(=O)NC5=O)nn(C)c4c3)CC2)cccc1-c1ccc(N2CCc3cccc(C(=O)Nc4nc5ccccc5s4)c3C2)nc1C(=O)O (centres unmarked) [Compound 172, 6-(8-(benzo[d]thiazol-2-ylcarbamoyl)-3,4-dihydroisoquinolin-2(1H)-yl)-3-(3-(3-(1-(3-((3-(2,6-dioxopiperidin-3-yl)-1-methyl-1H-indazol-6-yl)oxy)propyl)piperidin-4-yl)propoxy)-2-methylphenyl)picolinic acid]
Ymin (6 h): C (Ymin ≥ 70%) | Ymin (24 h): A (Ymin < 50%) | DC50 (6 h, read-out: EC50 (6 h)): 100 to 1000 nM | DC50 (24 h, read-out: EC50 (24 h)): < 100 nM

Cc1c(OCC[C@H](C)C2CCN(CC(=O)Nc3cccc4c(C5CCC(=O)NC5=O)nn(C)c34)CC2)cccc1-c1ccc(N2CCc3cccc(C(=O)Nc4nc5ccccc5s4)c3C2)nc1C(=O)O (stereo partly drawn) [Compound 173a, 6-(8-(benzo[d]thiazol-2-ylcarbamoyl)-3,4-dihydroisoquinolin-2(1H)-yl)-3-(3-((3S)-3-(1-(2-((3-(2,6-dioxopiperidin-3-yl)-1-methyl-1H-indazol-7-yl)amino)-2-oxoethyl)piperidin-4-yl)butoxy)-2-methylphenyl)picolinic acid]
Ymin (24 h): B (50% ≤ Ymin < 70%) | DC50 (24 h, read-out: EC50 (24 h)): < 100 nM

Cc1c(OCC[C@@H](C)C2CCN(CC(=O)Nc3cccc4c(C5CCC(=O)NC5=O)nn(C)c34)CC2)cccc1-c1ccc(N2CCc3cccc(C(=O)Nc4nc5ccccc5s4)c3C2)nc1C(=O)O (stereo partly drawn) [Compound 173b, 6-[8-(1,3-benzothiazol-2-ylcarbamoyl)-3,4-dihydro-1H-isoquinolin-2-yl]-3-[3-[(3R)-3-[1-[2-[[3-(2,6-dioxo-3-piperidyl)-1-methyl-indazol-7-yl]amino]-2-oxo-ethyl]-4-piperidyl]butoxy]-2-methyl-phenyl]pyridine-2-carboxylic acid]
Ymin (24 h): B (50% ≤ Ymin < 70%) | DC50 (24 h, read-out: EC50 (24 h)): 100 to 1000 nM

Cc1c(OCCO[C@H]2C[C@H]3CC[C@@H](C2)N3CC(=O)Nc2ccc3c(C4CCC(=O)NC4=O)nn(C)c3c2)cccc1-c1ccc(N2CCc3cccc(C(=O)Nc4nc5ccccc5s4)c3C2)nc1C(=O)O (stereo partly drawn) [Compound 174a, 6-(8-(benzo[d]thiazol-2-ylcarbamoyl)-3,4-dihydroisoquinolin-2(1H)-yl)-3-(3-(2-(((1R,3r,5S)-8-(2-((3-(2,6-dioxopiperidin-3-yl)-1-methyl-1H-indazol-6-yl)amino)-2-oxoethyl)-8-azabicyclo[3.2.1]octan-3-yl)oxy)ethoxy)-2-methylphenyl)picolinic acid]
Ymin (24 h): A (Ymin < 50%) | DC50 (24 h, read-out: EC50 (24 h)): < 100 nM

Cc1c(OCCO[C@@H]2C[C@H]3CC[C@@H](C2)N3CC(=O)Nc2ccc3c(C4CCC(=O)NC4=O)nn(C)c3c2)cccc1-c1ccc(N2CCc3cccc(C(=O)Nc4nc5ccccc5s4)c3C2)nc1C(=O)O (stereo partly drawn) [Compound 174b, 6-(8-(benzo[d]thiazol-2-ylcarbamoyl)-3,4-dihydroisoquinolin-2(1H)-yl)-3-(3-(2-(((1R,3s,5S)-8-(2-((3-(2,6-dioxopiperidin-3-yl)-1-methyl-1H-indazol-6-yl)amino)-2-oxoethyl)-8-azabicyclo[3.2.1]octan-3-yl)oxy)ethoxy)-2-methylphenyl)picolinic acid]
Ymin (6 h): C (Ymin ≥ 70%) | Ymin (24 h): B (50% ≤ Ymin < 70%) | DC50 (6 h, read-out: EC50 (6 h)): 100 to 1000 nM | DC50 (24 h, read-out: EC50 (24 h)): < 100 nM

Cc1c(Oc2ccc(CCCCN3CCN(c4cccc5c(C6CCC(=O)NC6=O)nn(C)c45)CC3)cc2)cccc1-c1ccc(N2CCc3cccc(C(=O)Nc4nc5ccccc5s4)c3C2)nc1C(=O)O (centres unmarked) [Compound 175, 6-(8-(benzo[d]thiazol-2-ylcarbamoyl)-3,4-dihydroisoquinolin-2(1H)-yl)-3-(3-(4-(4-(4-(3-(2,6-dioxopiperidin-3-yl)-1-methyl-1H-indazol-7-yl)piperazin-1-yl)butyl)phenoxy)-2-methylphenyl)picolinic acid]
Ymin (24 h): B (50% ≤ Ymin < 70%) | DC50 (24 h, read-out: EC50 (24 h)): < 100 nM

Cc1c(O[C@H]2CC[C@H](CC(=O)N3CCN(c4ccc5c(C6CCC(=O)NC6=O)nn(C)c5c4)CC3)CC2)cccc1-c1ccc(N2CCc3cccc(C(=O)Nc4nc5ccccc5s4)c3C2)nc1C(=O)O (some centres unmarked) [Compound 176a, 6-(8-(benzo[d]thiazol-2-ylcarbamoyl)-3,4-dihydroisoquinolin-2(1H)-yl)-3-(3-(((1r,4r)-4-(2-(4-(3-(2,6-dioxopiperidin-3-yl)-1-methyl-1H-indazol-6-yl)piperazin-1-yl)-2-oxoethyl)cyclohexyl)oxy)-2-methylphenyl)picolinic acid]
Ymin (24 h): B (50% ≤ Ymin < 70%) | DC50 (24 h, read-out: EC50 (24 h)): < 100 nM

Cc1c(OCC(F)(F)CN2C[C@@H](C)N(CC(=O)Nc3ccc4c(C5CCC(=O)NC5=O)nn(C)c4c3)[C@@H](C)C2)cccc1-c1ccc(N2CCc3cccc(C(=O)Nc4nc5ccccc5s4)c3C2)nc1C(=O)O (stereo partly drawn) [Compound 177a, 6-[8-(1,3-benzothiazol-2-ylcarbamoyl)-3,4-dihydro-1H-isoquinolin-2-yl]-3-[3-[3-[(3R,5S)-4-[2-[[3-(2,6-dioxo-3-piperidyl)-1-methyl-indazol-6-yl]amino]-2-oxo-ethyl]-3,5-dimethyl-piperazin-1-yl]-2,2-difluoro-propoxy]-2-methyl-phenyl]pyridine-2-carboxylic acid]
Ymin (24 h): B (50% ≤ Ymin < 70%) | DC50 (24 h, read-out: EC50 (24 h)): 100 to 1000 nM

Cc1c(Oc2ccc(CCCC(=O)N3CCN(c4ccc5c(C6CCC(=O)NC6=O)nn(C)c5c4)CC3)cc2)cccc1-c1ccc(N2CCc3cccc(C(=O)Nc4nc5ccccc5s4)c3C2)nc1C(=O)O (centres unmarked) [Compound 178, 6-(8-(benzo[d]thiazol-2-ylcarbamoyl)-3,4-dihydroisoquinolin-2(1H)-yl)-3-(3-(4-(4-(4-(3-(2,6-dioxopiperidin-3-yl)-1-methyl-1H-indazol-6-yl)piperazin-1-yl)-4-oxobutyl)phenoxy)-2-methylphenyl)picolinic acid]
Ymin (24 h): B (50% ≤ Ymin < 70%) | DC50 (24 h, read-out: EC50 (24 h)): < 100 nM

Cc1c(OCC(F)(F)CN2C[C@@H](C)N(CC(=O)N3CCN(c4cccc5c(C6CCC(=O)NC6=O)nn(C)c45)CC3)[C@@H](C)C2)cccc1-c1ccc(N2CCc3cccc(C(=O)Nc4nc5ccccc5s4)c3C2)nc1C(=O)O (stereo partly drawn) [Compound 179a, 6-[8-(1,3-benzothiazol-2-ylcarbamoyl)-3,4-dihydro-1H-isoquinolin-2-yl]-3-[3-[3-[(3R,5S)-4-[2-[4-[3-(2,6-dioxo-3-piperidyl)-1-methyl-indazol-7-yl]piperazin-1-yl]-2-oxo-ethyl]-3,5-dimethyl-piperazin-1-yl]-2,2-difluoro-propoxy]-2-methyl-phenyl]pyridine-2-carboxylic acid]
Ymin (24 h): A (Ymin < 50%) | DC50 (24 h, read-out: EC50 (24 h)): < 100 nM

Cc1c(OCC[C@@H]2CCCN(CC(=O)Nc3ccc4c(C5CCC(=O)NC5=O)nn(C)c4c3)C2)cccc1-c1ccc(N2CCc3cccc(C(=O)Nc4nc5ccccc5s4)c3C2)nc1C(=O)O (stereo partly drawn) [Compound 180a, 6-(8-(benzo[d]thiazol-2-ylcarbamoyl)-3,4-dihydroisoquinolin-2(1H)-yl)-3-(3-(2-((3S)-1-(2-((3-(2,6-dioxopiperidin-3-yl)-1-methyl-1H-indazol-6-yl)amino)-2-oxoethyl)piperidin-3-yl)ethoxy)-2-methylphenyl)picolinic acid]
Ymin (24 h): B (50% ≤ Ymin < 70%) | DC50 (24 h, read-out: EC50 (24 h)): < 100 nM

Cc1c(OCC[C@H]2CCCN(CC(=O)Nc3ccc4c(C5CCC(=O)NC5=O)nn(C)c4c3)C2)cccc1-c1ccc(N2CCc3cccc(C(=O)Nc4nc5ccccc5s4)c3C2)nc1C(=O)O (stereo partly drawn) [Compound 180b, 6-(8-(benzo[d]thiazol-2-ylcarbamoyl)-3,4-dihydroisoquinolin-2(1H)-yl)-3-(3-(2-((3R)-1-(2-((3-(2,6-dioxopiperidin-3-yl)-1-methyl-1H-indazol-6-yl)amino)-2-oxoethyl)piperidin-3-yl)ethoxy)-2-methylphenyl)picolinic acid]
Ymin (24 h): B (50% ≤ Ymin < 70%) | DC50 (24 h, read-out: EC50 (24 h)): < 100 nM

Cc1c(OCC(F)(F)CC2CCN(CC(=O)Nc3ccc4c(C5CCC(=O)NC5=O)nn(C)c4c3)CC2)cccc1-c1ccc(N2CCc3cccc(C(=O)Nc4nc5ccccc5s4)c3C2)nc1C(=O)O (centres unmarked) [Compound 181, 6-[8-(1,3-benzothiazol-2-ylcarbamoyl)-3,4-dihydro-1H-isoquinolin-2-yl]-3-[3-[3-[1-[2-[[3-(2,6-dioxo-3-piperidyl)-1-methyl-indazol-6-yl]amino]-2-oxo-ethyl]-4-piperidyl]-2,2-difluoro-propoxy]-2-methyl-phenyl]pyridine-2-carboxylic acid]
Ymin (24 h): A (Ymin < 50%) | DC50 (24 h, read-out: EC50 (24 h)): < 100 nM

Cc1c(O[C@H]2CC[C@H](CC(=O)N3CCN(c4cccc5c(C6CCC(=O)NC6=O)nn(C)c45)CC3)CC2)cccc1-c1ccc(N2CCc3cccc(C(=O)Nc4nc5ccccc5s4)c3C2)nc1C(=O)O (some centres unmarked) [Compound 182a, 6-(8-(benzo[d]thiazol-2-ylcarbamoyl)-3,4-dihydroisoquinolin-2(1H)-yl)-3-(3-(((1r,4r)-4-(2-(4-(3-(2,6-dioxopiperidin-3-yl)-1-methyl-1H-indazol-7-yl)piperazin-1-yl)-2-oxoethyl)cyclohexyl)oxy)-2-methylphenyl)picolinic acid]
Ymin (24 h): B (50% ≤ Ymin < 70%) | DC50 (24 h, read-out: EC50 (24 h)): < 100 nM
